Assay results published in patent US9662388B2, “Methods and systems for treating cell proliferation disorders using plasmonics enhanced photospectral therapy (PEPST) and exciton-plasmon enhanced phototherapy (EPEP)” (Duke University, priority 2008, dated 2017).
Where two headings read alike, the source gives them in different places. Non-standard residues stand in square brackets, D forms with d. Residues, ends and D or L forms follow the SMILES beside them. Bpa = N[CH](Cc1ccc(C(=O)c2ccccc2)cc1)C(=O)O; 2Nal = N[CH](Cc1ccc2ccccc2c1)C(=O)O; Aib = CC(C)(N)C(=O)O

Tests used:
[1] = cited from earlier work
[2] = average over λex 224, 266, 280 nm

In the case of CC1NC(=O)C(C)(C)NC(=O)C(Cc2ccc(C(=O)c3ccccc3)cc2)NC(=O)C(C)(C)NC(=O)C(C)NC(=O)C(C)(C)NC(=O)C(Cc2ccc3ccccc3c2)NC(=O)C(C)(C)NC1=O (centres unmarked) [Compound 1A] (cyclo([Aib][2Nal][Aib]A[Aib][Bpa][Aib]A); configuration not given here), the kSSET ([1]; λex 224 nm) is given as 3.8e+07 s⁻¹, the kSSET ([1]; λex 266 nm) is given as 3.6e+07 s⁻¹ and the kSSET ([1]; λex 280 nm) is given as 3.6e+07 s⁻¹. The “kSSET (Average)” value [2] was 3.67e+07 s⁻¹.
For CC(NC(=O)C(C)(C)NC(=O)C(Cc1ccc(C(=O)c2ccccc2)cc1)NC(=O)C(C)(C)NC(=O)C(C)NC(=O)C(C)(C)NC(=O)C(Cc1ccc2ccccc2c1)NC(=O)C(C)(C)N)C(=O)O (centres unmarked) [Compound 1B] (H-[Aib][2Nal][Aib]A[Aib][Bpa][Aib]A-OH; configuration not given here), the kSSET ([1]; λex 224 nm) is listed as 2.44e+08 s⁻¹, the kSSET ([1]; λex 266 nm) is listed as 1.8e+08 s⁻¹ and the kSSET ([1]; λex 280 nm) is listed as 1.36e+08 s⁻¹.
For CC(NC(=O)C(C)(C)NC(=O)C(Cc1ccc(C(=O)c2ccccc2)cc1)NC(=O)C(C)(C)NC(=O)C(Cc1ccc2ccccc2c1)NC(=O)C(C)(C)NC(=O)C(C)NC(=O)C(C)(C)N)C(=O)O (single isomer, unassigned) [Compound 2B], the kSSET ([1]; λex 224 nm) is given as 3.1e+07 s⁻¹, the kSSET ([1]; λex 266 nm) is given as 3.9e+07 s⁻¹ and the kSSET ([1]; λex 280 nm) is given as 4.7e+07 s⁻¹. The “kSSET (Average)” value [2] was 3.9e+07 s⁻¹.
